Tests used:
[1] = target: T1, Alpha-1A adrenergic receptor (Rattus norvegicus, UniProt P43140); assay: DRUGMATRIX: Alpha-1A adrenergic receptor radioligand binding (ligand: prazosin); assay type: cell membranes, Wistar, Submaxillary gland, Membrane; settings: Not Active = under 50% inhibition at 10 µM
T1 sequence (P43140 whole entry): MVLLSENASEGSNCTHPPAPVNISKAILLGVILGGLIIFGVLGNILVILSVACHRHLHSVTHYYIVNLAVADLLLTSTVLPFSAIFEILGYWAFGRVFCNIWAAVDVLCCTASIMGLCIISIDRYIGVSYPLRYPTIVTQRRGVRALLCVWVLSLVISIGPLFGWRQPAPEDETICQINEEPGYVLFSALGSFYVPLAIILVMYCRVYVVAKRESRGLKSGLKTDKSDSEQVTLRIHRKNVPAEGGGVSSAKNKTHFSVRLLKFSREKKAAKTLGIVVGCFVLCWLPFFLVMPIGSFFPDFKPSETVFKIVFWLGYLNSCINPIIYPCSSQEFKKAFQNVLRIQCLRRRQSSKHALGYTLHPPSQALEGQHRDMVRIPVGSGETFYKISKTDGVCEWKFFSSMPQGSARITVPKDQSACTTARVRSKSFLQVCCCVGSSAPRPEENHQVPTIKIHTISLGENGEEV

[2] = target: Aldo-keto reductase family 1 member B1 (Rattus norvegicus, UniProt P07943); assay: biochemical; assay type: tissue-based, Lens of camera-type eye;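 also: inhibition of aldose reductase enzyme activity, measured with DL-glyceraldehyde as the substrate; in other assays of this panel Not Active means under 50% inhibition at 10 µM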
[3] = DRUGMATRIX: Tumor Necrosis Factor (TNF), Non-Selective radioligand binding (ligand: [125I] TNF-alpha); assay type: cell membranes, Membrane; settings: u-937; Not Active = under 50% inhibition at 10 µM
[4] = DRUGMATRIX: Glutamate, NMDA, Phencyclidine radioligand binding (ligand: [3H] TCP); assay type: cell membranes, Rattus norvegicus, Wistar, Cerebral cortex, Membrane; settings: Not Active = under 50% inhibition at 10 µM
[5] = DRUGMATRIX: Leukotriene, BLT (LTB4) radioligand binding (ligand: [3H]LTB4); assay type: cell membranes, Membrane; settings: u-937; Not Active = under 50% inhibition at 10 µM
[6] = DRUGMATRIX: Phosphodiesterase PDE4 enzyme inhibition (substrate: [3H]cAMP + cAMP); settings: u-937, Not Active = under 50% inhibition at 10 µM
[7] = target: Matrix metalloproteinase-9 (Homo sapiens, UniProt P14780); assay type: cell-based;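 also: inhibition of isolated MMP-9 enzyme activity toward a synthetic peptide substrate, from the DrugMatrix protease screening panel; in other assays of this panel Not Active means under 50% inhibition at 10 µM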
Sequence of Matrix metalloproteinase-9 (P14780 whole entry): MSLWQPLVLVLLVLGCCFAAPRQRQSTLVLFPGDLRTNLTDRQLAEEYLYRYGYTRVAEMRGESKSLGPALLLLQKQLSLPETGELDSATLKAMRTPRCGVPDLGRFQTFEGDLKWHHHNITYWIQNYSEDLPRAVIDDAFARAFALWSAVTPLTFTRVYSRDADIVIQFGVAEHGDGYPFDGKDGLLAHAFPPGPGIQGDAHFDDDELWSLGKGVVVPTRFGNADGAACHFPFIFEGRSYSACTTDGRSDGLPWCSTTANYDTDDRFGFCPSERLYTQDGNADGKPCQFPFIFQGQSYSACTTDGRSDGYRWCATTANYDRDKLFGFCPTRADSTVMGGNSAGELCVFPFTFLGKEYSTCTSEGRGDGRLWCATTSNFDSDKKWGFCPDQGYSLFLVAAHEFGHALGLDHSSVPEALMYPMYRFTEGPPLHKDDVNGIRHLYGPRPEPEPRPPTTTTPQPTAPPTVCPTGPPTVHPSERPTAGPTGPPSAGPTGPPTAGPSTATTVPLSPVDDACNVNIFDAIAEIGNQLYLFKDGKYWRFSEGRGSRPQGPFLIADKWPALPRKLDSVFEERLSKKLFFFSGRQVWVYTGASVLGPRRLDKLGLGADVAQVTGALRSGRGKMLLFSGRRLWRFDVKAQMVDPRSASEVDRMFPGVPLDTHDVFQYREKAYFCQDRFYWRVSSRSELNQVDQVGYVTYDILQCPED

Row | Molecule | IC50 [1] | IC50 [2] | IC50 [3] | Ki [3] | IC50 [4] | Ki [4] | IC50 [5] | Ki [5] | IC50 [6] | Ki [6] | IC50 [7] | IC50 ([2]; read-out: IC50) [nM] | IC50 ([6]; read-out: IC50) [nM] | Ki [1] | Ki [2] | Ki [7] | IC50 ([1]; read-out: IC50) [nM] | Ki ([1]; read-out: Ki) [nM]
1 | COC(=O)Nc1nc2ccc(C(=O)c3ccccc3)cc2[nH]1 [MEBENDAZOLE] | Not Active | Not Active | Not Active | Not Active | Not Active | Not Active | Not Active | Not Active | Not Active | Not Active | Not Active |  |  |  |  |  |  | 
2 | O=[As][O-].[Na+] [SODIUM ARSENITE] | Not Active | Not Active | Not Active | Not Active | Not Active | Not Active | Not Active | Not Active | Not Active | Not Active | Not Active |  |  |  |  |  |  | 
3 | CS(=O)(=O)c1ccc(C2=C(c3ccccc3)C(=O)OC2)cc1 [ROFECOXIB] | Not Active | Not Active | Not Active | Not Active | Not Active | Not Active | Not Active | Not Active | Not Active | Not Active | Not Active |  |  |  |  |  |  | 
4 | CC1(C)[C@H](C(=O)O)N2C(=O)C[C@H]2S1(=O)=O [SULBACTAM] | Not Active | Not Active | Not Active | Not Active | Not Active | Not Active | Not Active | Not Active | Not Active | Not Active | Not Active |  |  |  |  |  |  | 
5 | CC(N)C12CC3CC(CC(C3)C1)C2 (stereo not given) [RIMANTADINE] | Not Active | Not Active | Not Active | Not Active | Not Active | Not Active | Not Active | Not Active | Not Active | Not Active | Not Active |  |  |  |  |  |  | 
6 | CC[C@H](C)C(=O)O[C@H]1CCC=C2C=C[C@H](C)[C@H](CC[C@@H]3C[C@@H](O)CC(=O)O3)[C@H]21 [MEVASTATIN] | Not Active | Not Active | Not Active | Not Active | Not Active | Not Active | Not Active | Not Active | Not Active | Not Active | Not Active |  |  |  |  |  |  | 
7 | O=C(OC[C@H]1O[C@@H](OC(=O)c2cc(O)c(O)c(OC(=O)c3cc(O)c(O)c(O)c3)c2)[C@H](OC(=O)c2cc(O)c(O)c(OC(=O)c3cc(O)c(O)c(O)c3)c2)[C@@H](OC(=O)c2cc(O)c(O)c(OC(=O)c3cc(O)c(O)c(O)c3)c2)[C@@H]1OC(=O)c1cc(O)c(O)c(OC(=O)c2cc(O)c(O)c(O)c2)c1)c1cc(O)c(O)c(OC(=O)c2cc(O)c(O)c(O)c2)c1 [TANNIC ACID] | Not Active |  | Not Active | Not Active | Not Active | Not Active | Not Active | Not Active |  |  | Not Active | 346 | 1040 |  |  |  |  | 
8 | LEAD(IV) ACETATE | Not Active | Not Active | Not Active | Not Active | Not Active | Not Active | Not Active | Not Active | Not Active | Not Active | Not Active |  |  | Not Active | Not Active | Not Active |  | 
9 | CO[C@@H]1[C@@H](OC)[C@H](C)[C@@](O)(CC(=O)O)O[C@H]1[C@H](C)[C@H]1O[C@@]2(CC[C@@](C)([C@H]3CC[C@@](C)([C@@H]4O[C@@H]([C@H]5O[C@](C)(O)[C@H](C)C[C@@H]5C)C[C@@H]4O[C@@H]4C[C@H](OC)[C@@H](OC)[C@H](C)O4)O3)O2)C[C@H](O)[C@H]1C.N [MADURAMICIN] | Not Active | Not Active | Not Active | Not Active | Not Active | Not Active | Not Active | Not Active | Not Active | Not Active | Not Active |  |  |  |  |  |  | 
10 | C[N+]1(C)[C@@H]2C[C@@H](OC(=O)[C@H](CO)c3ccccc3)C[C@H]1[C@@H]1O[C@@H]12.[Br-] [METHSCOPOLAMINE BROMIDE] | Not Active | Not Active | Not Active | Not Active | Not Active | Not Active | Not Active | Not Active | Not Active | Not Active | Not Active |  |  |  |  |  |  | 
11 | Cc1nnc(NS(=O)(=O)c2ccc(N)cc2)s1 [SULFAMETHIZOLE] | Not Active | Not Active | Not Active | Not Active | Not Active | Not Active | Not Active | Not Active | Not Active | Not Active | Not Active |  |  |  |  |  |  | 
12 | Cc1ccc(S(=O)(=O)NC(=O)NN2CCCCCC2)cc1 [TOLAZAMIDE] | Not Active | Not Active | Not Active | Not Active | Not Active | Not Active | Not Active | Not Active | Not Active | Not Active | Not Active |  |  |  |  |  |  | 
13 | CCC(C)(C)C(=O)O[C@H]1C[C@@H](C)C=C2C=C[C@H](C)[C@H](CC[C@@H]3C[C@@H](O)CC(=O)O3)[C@H]21 [SIMVASTATIN] | Not Active | Not Active | Not Active | Not Active | Not Active | Not Active | Not Active | Not Active | Not Active | Not Active | Not Active |  |  |  |  |  |  | 
14 | Cc1ccnc(NS(=O)(=O)c2ccc(N)cc2)n1 [SULFAMERAZINE] | Not Active | Not Active | Not Active | Not Active | Not Active | Not Active | Not Active | Not Active | Not Active | Not Active | Not Active |  |  |  |  |  |  | 
15 | OC[C@@H](O)[C@@H](O)[C@H](O)[C@H](O)CO [MANNITOL] | Not Active | Not Active | Not Active | Not Active | Not Active | Not Active | Not Active | Not Active | Not Active | Not Active | Not Active |  |  |  |  |  |  | 
16 | CCN(CC)N=O [N-NITROSODIETHYLAMINE] | Not Active | Not Active | Not Active | Not Active | Not Active | Not Active | Not Active | Not Active | Not Active | Not Active | Not Active |  |  |  |  |  |  | 
17 | CC(=O)O[C@]1(C(C)=O)CC[C@H]2[C@@H]3C[C@H](C)C4=CC(=O)CC[C@]4(C)[C@H]3CC[C@@]21C [MEDROXYPROGESTERONE ACETATE] | Not Active | Not Active | Not Active | Not Active | Not Active | Not Active | Not Active | Not Active | Not Active | Not Active | Not Active |  |  |  |  |  |  | 
18 | CCN1CCCC1CNC(=O)c1cc(S(N)(=O)=O)ccc1OC (stereo not given) [SULPIRIDE] | Not Active | Not Active | Not Active | Not Active | Not Active | Not Active | Not Active | Not Active | Not Active | Not Active | Not Active |  |  |  |  |  |  | 
19 | CN1C[C@H](CNC(=O)OCc2ccccc2)C[C@@H]2c3cccc4c3c(cn4C)C[C@H]21 [METERGOLINE] |  | Not Active | Not Active | Not Active | Not Active | Not Active | Not Active | Not Active | Not Active | Not Active | Not Active |  |  |  |  |  | 95 | 38
20 | CC(Cl)(Cl)Cl [TRICHLOROETHANE] | Not Active | Not Active | Not Active | Not Active | Not Active | Not Active | Not Active | Not Active | Not Active | Not Active | Not Active |  |  |  |  |  |  | 
21 | CC1=C(/C=C/C(C)=C/C=C/C(C)=C/C(=O)O)C(C)(C)CCC1 [TRETINOIN] | Not Active | Not Active | Not Active | Not Active | Not Active | Not Active | Not Active | Not Active | Not Active | Not Active | Not Active |  |  |  |  |  |  | 
22 | C=CCc1ccc2c(c1)OCO2 [SAFROLE] | Not Active | Not Active | Not Active | Not Active | Not Active | Not Active | Not Active | Not Active | Not Active | Not Active | Not Active |  |  |  |  |  |  | 

Source: ChEMBL document CHEMBL1909046, “DrugMatrix in vitro pharmacology data”
